From patent US20230329245A1, “COMPOSITIONS AND METHODS OF USE THEREOF” (Curie Co. Inc., priority 2020, published 2023)
“And” between values parts separate entries of the source, which are not always exact repeats. Identical values can stand only once. Like-named read-outs stand apart in the source and are kept apart here.

How the values were obtained:
Assay type in all cases: cell-based
[1] = tested on: E. coli ATCC 8739; test: MIC determination, E. coli
Description: (§1) A variant form of Streptomyces mobaraensis transglutaminase having the amino acid sequence depicted in SEQ ID NO:6 was prepared by literature methods with a hexa-his-tag to aid in purification (Javitt, et al. (2017) BMC Biotechnol. 17:23). The cells were grown in shake flasks, lysed by homogenization, and the Tgase variant (SEQ ID NO:6) was isolated from the cell debris by centrifugation. The resulting semi-purified enzyme (clarified lysate) were compared on an SDS-PAGE gel, by spectroscopy, and activity for concentration of active enzyme. The Tgase variant (SEQ ID NO:6) was further purified by affinity column on a Ni-IMAC resin prior to MIC assay. Tgase activity was measured in the examples herein using a colorimetric hydroxamate activity assay (Folk and Cole (1965) J Biol Chemistry 240(7):2951-2960). The enzyme was diluted to a working stock concentration of 2 mg/mL in CAMHB or RPMI media (bacterial or fungal media). This was then 2-fold serial diluted ten times in the appropriate media in a 96-well master plate to generate 2× starting concentrations for MIC testing.
(§2) Strains were acquired from the American Type Culture Collection (ATCC) (Manassas, VA) and maintained as −80° C. frozen glycerol stocks: S. aureus ATCC 6538, E. coli ATCC 8739, P. aeruginosa ATCC 9027, C. albicans ATCC 10231, and A. brasiliensis ATCC 16404. B. subtilis BGSC 1A1276 was purchased from the Bacillus Genetic Stock Center (BGSC) (Columbus, OH) and maintained as −80° C. frozen glycerol stock. Cation-adjusted Mueller-Hinton broth (CAMHB) at pH 7.3 was used for testing with bacterial species (unless otherwise noted), while RPMI 1640 media buffered with 0.165 M MOPS at pH 7.0 was used for testing with all fungal species.
For MIC determination, bacterial strains (S. aureus ATCC 6538, E. coli ATCC 8739, P. aeruginosa ATCC 9027) were grown overnight on Tryptic Soy Agar (TSA) plates at 37° C. A few colonies of each strain were collected with a sterile swab and used to make a McFarland 0.5 standard solution (approximately 1×10^8 CFU/mL) in sterile PBS. The McFarland solution was then diluted 1:100 in CAMHB to generate the inoculum, and 50 μL of this inoculum was combined with 50 μL of the 2× test article in a 96-well plate for a final concentration of 1×. All test conditions were performed in duplicate. The bacterial-strain MIC 96-well plates were incubated at 37° C. for 18 to 20 hours. MIC is defined as the lowest concentration of a compound in which no visible growth is observed.

[2] = tested on: E. coli ATCC 8739; test: Growth inhibition of E. coli culture in LB (OD600 / BacTiter-Glo); conditions: for growth inhibition / growth inhibition in the presence of 400 μg/mL Tgase SEQ ID NO: 6 / inhibition at 3000 µg/mL / inhibition at 500 µg/mL: E. coli ATCC 8739; for inhibition at 3000 µg/mL / inhibition at 500 µg/mL: Escherichia coli, ATCC8739
Description: (§3) For MIC determination of bacterial cultures, E. coli ATCC 8739, DH5-alpha, DH10-beta, and B. subtilis BGSC 1A1276 was grown overnight (16-18 hours) in LB broth at 37° C. The following day, the cell density of the saturated cultures was calculated using OD600 and cultures were diluted to 10^4 to 10^6 CFU/mL in sterile LB media to generate the inoculum, and 90 μL of the inoculum was combined with 10 μL of serially diluted Tgase SEQ ID NO:1 at a range of 0.0001-0.01 weight percent in the presence or absence of 0.003% lysozyme (100-fold lower than the effective concentration). Growth curves were measured by OD600 on a BioTek® Synergy Plate Reader. Optionally, the following day, a cell viability assay such as BacTiter-Glo™ (Promega®) following manufacturer's protocols) could be used to assess cell viability. A decrease in OD600 or luminescence indicated a decrease in cell viability. Results are presented as a percent reduction in cell count relative to an untreated culture. All test conditions were performed in triplicate.
E. coli ATCC 8739 was grown overnight in LB broth at 37° C. The following day, the cell density of the saturated cultures was calculated using OD600 and cultures were diluted to 10^4 to 10^6 CFU/mL in sterile LB media to generate the inoculum, and 90 μL of the inoculum was combined with 10 μL of serially diluted Tgase SEQ ID NO:6 at a range of 0.001-0.1 weight percent in the presence or absence of chemical preservatives at concentrations above and below the calculated MIC value. A single concentration (at the MIC) of the chemical preservative and static concentrations of Tgase SEQ ID NO:6 (400 μg/mL, 0.04% w/v) are presented in Table 8 as representative examples. Growth curves were measured by OD600 on a BioTek® Synergy Plate Reader and a cell viability assay (BacTiter-Glo™, Promega®, following manufacturer's protocols) was used to assess cell viability. A decrease in OD600 or luminescence indicated a decrease in cell viability. Results are presented as a percent reduction in cell count relative to an untreated culture. […]

[3] = tested on: P. aeruginosa ATCC 9027; test: MIC determination, P. aeruginosa; conditions: CAMHB pH 7.3, 37° C., 18 to 20 hours, duplicate
Description: as §1, §2
For MIC determination, bacterial strains (S. aureus ATCC 6538, E. coli ATCC 8739, P. aeruginosa ATCC 9027) were grown overnight on Tryptic Soy Agar (TSA) plates at 37° C. A few colonies of each strain were collected with a sterile swab and used to make a McFarland 0.5 standard solution (approximately 1×10^8 CFU/mL) in sterile PBS. […]

[4] = tested on: C. albicans ATCC 10231; test: MIC determination, C. albicans; conditions: RPMI 1640 pH 7.0, 37° C., 24 to 48 hours, duplicate
Description: as §1, with “testing. […]” for “testing.”
(§4) C. albicans MIC 96-well plate was incubated for 37° C. for 24 to 48 hours. […] After incubation, all 96-well plates were examined visually and on a spectrophotometer at absorbance OD650. […]

[5] = tested on: A. brasiliensis ATCC 16404; test: MIC determination, A. brasiliensis; conditions: RPMI 1640 pH 7.0, 25° C., up to 7 days, duplicate
Description: as §1, with “testing. […]” for “testing.”
as §4

[6] = tested on: S. aureus ATCC 6538; test: MIC determination, S. aureus; conditions: CAMHB pH 7.3, 37° C., 18 to 20 hours, duplicate
Description: as §1
Strains were acquired from the American Type Culture Collection (ATCC) (Manassas, VA) and maintained as −80° C. frozen glycerol stocks: S. aureus ATCC 6538, E. coli ATCC 8739, P. aeruginosa ATCC 9027, C. albicans ATCC 10231, and A. brasiliensis ATCC 16404. […]

[7] = tested on: C. albicans ATCC 10231; test: Growth reduction of C. albicans culture (OD600 / BacTiter-Glo)
Description: For MIC determination of yeast cultures, C. albicans ATCC 10231 was grown overnight (24 hours) in YPD media at 30° C. The following day, the cell density of the saturated cultures was calculated using OD600 and cultures were diluted to 10^4 to 10^6 CFU/mL in sterile YPD media to generate the inoculum, and 90 μL of the inoculum was combined with 10 μL of serially diluted Tgase SEQ ID NO:1 at a range of 0.0001-0.01 weight percent. The cultures were grown overnight at 30° C. and growth curves were measured by OD600 on a BioTek® Synergy Plate Reader. Optionally, the following day, a cell viability assay such as BacTiter-Glo™ (Promega®) following manufacturer's protocols) could be used to assess cell viability. A decrease in OD600 or luminescence indicated a decrease in cell viability. Results are presented as a percent reduction in cell count relative to an untreated culture. All test conditions were performed in triplicate.
(§5) Yeast or bacterial starter cultures were grown as described previously. Tgase (SEQ ID NO:6) was added to each culture at 0.001-1 weight percent. The cultures were grown overnight at 30° C.-37° C. and growth curves were measured by a BioTek® Synergy Plate Reader.

[8] = tested on: B. subtilis BGSC 1A1276; test: Growth reduction of B. subtilis culture (OD600 / BacTiter-Glo)
Description: as §3, §5

[9] = Escherichia coli, ATCC8739, read-out: Concentration (MIC values; single concentration at the MIC of the chemical preservative)
[10] = CAMHB pH 7.3, 37° C., 18 to 20 hours, duplicate

Cn1sccc1=O [MIT, Methylisothiazolinone]
Concentration (MIC values; single concentration at the MIC of the chemical preservative) [1]: 150 µg/mL | growth inhibition ([2]; 150 μg/mL): 98.7% | growth inhibition in the presence of 400 μg/mL Tgase SEQ ID NO: 6 ([2]; 150 μg/mL preservative + 400 μg/mL Tgase SEQ ID NO: 6): 99.8%

CCCCC(O)CO (centres unmarked) [1,2-hexandiol]
MIC [1, 9]: 3000 µg/mL | inhibition at 3000 µg/mL ([2]; 3,000 μg/mL preservative + 400 μg/mL Tgase SEQ ID NO: 6, read-out: growth inhibition in the presence of 400 μg/mL Tgase SEQ ID NO: 6): 99.5% | inhibition at 3000 µg/mL ([2]; 3,000 μg/mL, read-out: growth inhibition): 97.9%

Benzalkonium chloride
Concentration (MIC values; single concentration at the MIC of the chemical preservative) [1]: 16 µg/mL | MIC [1, 10]: 15.63 µg/mL | MIC [3]: 62.5 µg/mL and 31.25 µg/mL | MIC [4]: 3.91 µg/mL | growth inhibition ([2]; 16 μg/mL): 99.7% | growth inhibition in the presence of 400 μg/mL Tgase SEQ ID NO: 6 ([2]; 16 μg/mL preservative + 400 μg/mL Tgase SEQ ID NO: 6): 99.94%

CCCCCCC(O)CO (centres unmarked) [1,2-octandiol]
MIC [1, 9]: 500 µg/mL | inhibition at 500 µg/mL ([2]; 500 μg/mL preservative + 400 μg/mL Tgase SEQ ID NO: 6, read-out: growth inhibition in the presence of 400 μg/mL Tgase SEQ ID NO: 6): 99.3% | inhibition at 500 µg/mL ([2]; 500 μg/mL, read-out: growth inhibition): 97.8%

O=C([O-])c1ccccc1.[Na+] [Sodium benzoate, sodium benzoate]
Concentration (MIC values; single concentration at the MIC of the chemical preservative) [1]: 10,000 μg/mL | MIC [1, 10]: 10,000 μg/mL | MIC [5]: 2,500 μg/mL and 1,250 μg/mL | MIC [6]: 10,000 μg/mL | MIC [3]: 10,000 μg/mL | MIC [4]: >20,000 μg/mL | growth inhibition ([2]; 10,000 μg/mL): 99.85% | growth inhibition in the presence of 400 μg/mL Tgase SEQ ID NO: 6 ([2]; 10,000 μg/mL preservative + 400 μg/mL Tgase SEQ ID NO: 6): 99.97%

B1: Tgase (SEQ ID NO: 1): wild-type Streptomyces mobaraensis transglutaminase, mature form, amino acid sequence SEQ ID NO:1 (protein, listed as Streptomyces mobaraensis)
chain: DSDDRVTPPAEPLDRMPDPYRPSYGRAETVVNNYIRKWQQVYSHRDGRKQQMTEEQREWLSYGCVGVTWVNSGQYPTNRLAFASFDEDRFKNELKNGRPRSGETRAEFEGRVAKESFDEEKGFQRAREVASVMNRALENAHDESAYLDNLKKELANGNDALRNEDARSPFYSALRNTPSFKERNGGNHDPSRMKAVIYSKHFWSGQDRSSSADKRKYGDPDAFRPAPGTGLVDMSRDRNIPRSPTSPGEGFVNFDYGWFGAQTEADADKTVWTHGNHYHAPNGSLGAMHVYESKFRNWSEGYSDFDRGAYVITFIPKSWNTAPDKVKQGWP
Fold improvement in enzyme efficacy ([7]; C. albicans ATCC 10231, Tgase (SEQ ID NO: 1) = 1): 1 | Percent Growth Reduction ([7]; C. albicans ATCC 10231, enzyme concentration 800 ug/mL): 83.11% | growth inhibition (in words) ([7]; C. albicans, Tgase alone): partially inhibited | growth inhibition ([2]; 960 μg/mL): 0.0% | antimicrobial activity ([2]; gram negative E. coli ATCC 8739, DH5-alpha and DH10-beta, under the concentrations evaluated): little or no detectable antimicrobial activity | Fold improvement in enzyme efficacy ([8]; Tgase (SEQ ID NO: 1) alone = 1): 1 | growth inhibition (in words) ([8]; Tgase alone): partially inhibited | Percent Growth Reduction ([8]; enzyme concentration 960 ug/mL): 99.17% | growth inhibition (in words) ([8]; upon adding a cell membrane disruptor, lysozyme): Full inhibition
